{"source": "ChEMBL document CHEMBL5608211", "about": "“Antibody-drug conjugates for targeted cancer therapy: Recent advances in potential payloads” (Eur J Med Chem, 2024)", "format_in_all_cases": "functional, cell-based", "key": {"[1]": {"experiment": "Cytotoxicity against human KPL-4 cells assessed as inhibition of cell growth incubated for 3 days by CellTiter-Glo luminescent assay", "conditions": "KPL4, 72 h"}, "[2]": {"system": "MOLT-4", "experiment": "Cytotoxicity against human MOLT-4 cells assessed as inhibition of cell growth incubated for 72 hrs by XTT assay", "conditions": "MOLT-4, 72 h"}, "[3]": {"system": "T47D", "experiment": "Cytotoxicity against human T47D cells"}, "[4]": {"system": "MES-SA", "experiment": "Cytotoxicity against human MES-SA cells assessed as inhibition of cell growth incubated for 72 hrs by CellTiter-Glo luminescent assay"}, "[5]": {"system": "LoVo", "experiment": "Cytotoxicity against human LoVo cells assessed as inhibition of cell growth incubated for 72 hrs by Promega CellTiter-Glo assay"}}}
{"compound": "C=C1C[C@H]2C=Nc3cc(OCCCCCOc4cc5c(cc4OC)C(=O)N4CC(=C)C[C@H]4C(O)N5C(=O)OCc4ccc(SSC(C)(C)C)cc4)c(OC)cc3C(=O)N2C1", "note": "(stereo not given in full)", "values": [{"measurement": "IC50", "setting": "[1]", "value": 6.3, "unit": "ng/mL"}]}
{"compound": "CCN(C(C)=O)[C@H]1CO[C@@H](O[C@H]2[C@H](O[C@H]3C#C/C=C\\C#C[C@]4(O)CC(=O)C(NC(=O)OC)=C3/C4=C\\CSC(C)=O)O[C@H](C)[C@@H](NO[C@H]3C[C@H](O)[C@H](SC(=O)c4c(C)c(I)c(O[C@@H]5O[C@@H](C)[C@H](O)[C@@H](OC)[C@H]5O)c(OC)c4OC)[C@@H](C)O3)[C@@H]2O)C[C@@H]1OC", "values": [{"measurement": "IC50", "setting": "[2]", "value": 0.00015, "unit": "nM"}]}
{"compound": "CC[C@H](C)[C@@H]1NC(=O)CNC(=O)[C@H]2CC(=O)[C@H]([C@@H](C)[C@@H](O)CO)NC(=O)[C@@H]3C[C@@H](O)CN3C(=O)[C@H](CC(=O)O)NC(=O)[C@H](C[S+]([O-])c3[nH]c4cc(O)ccc4c3C2)NC(=O)CNC1=O", "note": "(stereo not given in full)", "values": [{"measurement": "IC50", "setting": "[3]", "value": "~500", "unit": "nM"}]}
{"compound": "COc1c2c(c(O)c3c4c(c(C)cc13)C1O[C@@]3(C(OC)OC)OC1[C@@](O[C@H]1C[C@@H](O)[C@@](O)(C(C)=O)[C@@H](C)O1)(O4)C31CO1)C(=O)[C@@H](C)C[C@@H]2O[C@H]1C[C@@](C)(O)[C@H](OC(C)=O)[C@@H](C)O1", "note": "(stereo not given in full)", "values": [{"measurement": "IC50", "setting": "[4]", "value": 0.74, "unit": "nM"}]}
{"compound": "CC(C)(C)[C@H](c1cc(-c2cc(F)ccc2F)cn1Cc1ccccc1)N(CCCN)C(=O)CO", "values": [{"measurement": "IC50", "setting": "[5]", "value": "< 0.03", "unit": "nM"}]}
